Experiments:
[1] = in vivo
Description: N-acetyl-D-glucosanime can raise the resistance to oxygen deficiency of the small mice. • III. Toxicological test of the compound of formula (I), including: • 1. acute toxicity test: including tests of administrating medicine by oral, intravenous injection and maximum limit amount for administration; • 2. Ames test; • 3. micronucleus test of bone marrow cell of mouse; • 4. abnormal sexual test for the sperm of mouse; • 5. abnormal aberrance test for the chromosin of mouse's testis; • 6. chronic lethal test; • 7. subchronic toxicity (feed for 90 days) test; • 8. traditional aberrance-inducing test;

[2] = tested on: mice in oxygen deficiency at normal pressure; assay: Resistance to oxygen-deficiency: model of oxygen deficiency at normal pressure; format: in vivo, mice of Kunming species
Protocol: Experimental research of the resistance to oxygen-deficiency of N-acetyl-Dglucosanime 1. Model of Oxygen Deficiency at Normal Pressure:
The mice were put into a sealed glass desiccator with a volumn of 200 ml and charged with 20 g of sodium lime to observe the survival time.
The mice of Kunming species, provided by the 3rd Military Medical University of P. R. China
Two groups had 24 mice in total, in the experimental group, two weeks before experiment, administrating N-acetyl-D-glucosanime by stomach infusion with a dosage of 0.05 g/kg, in the control group, they were normally fed.

[3] = tested on: rat with cerebral ischemia and Re-Infusion; assay: Protecting effect in rat with cerebral ischemia and re-infusion (four arteries ligation model); format: in vivo, Wistar rat
Description: The following experimental example is used to illustrate the effect of resisting cardiac and cerebral ischemia as well as oxygen-deficiency, and the low toxicity of the compound of the present invention (the compound of formula (I)). • I. The protecting effect of N-acetyl-D-glucosamine in rat with cerebral ischemia and Re-Infusion • 1. Animal: Wistar rat provided by the 3rd Military Medical University P.R. China. Half of them are male, the other are female. • 2. Method for making model: the model is made by four arteries ligation method to cause the rat to be cerebral ischemia, in which for each rat, the vertebra artery in the vertebra foramen of the second cervical vertebra is blocked by hot coagulation with electric coagulator, then separate the two common carotid artery in the front of it, after that, remain the surgical thread jacket, sewing up. Next day, after the animal is recovered from anesthesia, open the sewing thread in the front of the animal, clamp the two common carotid artery with artery clip, it needs 20 min. in total. […] Grouping: the animals are divided into four groups (eight animals in each group) […]
Astragalus Group: that is, before the animal is treated, administrating Astragalus injection solution by abdominal injection.
Astragalus+N-acetyl-D-glucosanime Group: that is, 30 min before clamping, administrating a mixture injection solution of 0.25 g/kg of N-acetyl-D-glucosanime and 2 g/kg of Astragalus by abdominal injection.
The control Group: not administrating any medicament, but injecting physiological salt solution with the same volume.
The animals in each group are all fed in standard. In the process of operation, please pay attention to asepsis.
Abnormal ratio of the water content in the brain (by dry-wet weight method):
Scoring the symptoms of nerve behavior • 0 score: no symptom of nerve defect, moving normally • 1 score: cannot extend the front claw at the opposite side • 2 score: when walking, the body rotates toward the hemiplegia side • 3 score: the body collapse down toward the hemiplegia side • 4 score: not capable of walking spontaneously, losing consciousness 5.

## CC(=O)N[C@H]1C(O)O[C@H](CO)[C@@H](O)[C@@H]1O (stereo partly drawn) [N-acetyl-D-glucosanime, N-acetyl-D-glucosamine]
[1]
  acute test dosage relative to the injection dosage for human being: 300 times
  dosage taken at which acute toxicosis reaction had not appeared: more than 2 g/kg
[1]; 4 weeks
  maximum dosage with no toxicosis reaction: 1 g/kg
[2]; 0.05 g/kg by stomach infusion, two weeks before experiment, sealed 200 ml desiccator with 20 g sodium lime, versus control group
  Average survival period: much longer than that of the control group
[2]; conclusion
  resistance to oxygen deficiency of the small mice: can raise
[3]; conclusion, dosage 0.025 g/kg
  cerebral edema degree caused by cerebral ischemia and re-infusion: decreased obviously
  corresponding nerve symptoms: released
  survival rate: raised obviously
[3]; dry-wet weight method, medicament before clamping (N-acetyl-D-glucosanime 0.25 g/kg, Astragalus 2 g/kg in mixture), control 70.84%
  Water content of brain: 66.2%
[3]; four arteries ligation, 20 min clamping, medicament before clamping (N-acetyl-D-glucosanime 0.25 g/kg, Astragalus 2 g/kg in mixture), control 62.5%
  Survival: 87.5%
[3]; medicament before clamping (N-acetyl-D-glucosanime 0.25 g/kg, Astragalus 2 g/kg in mixture), control 75%
  Abnormal ratio (symptoms of nerve behavior): 50%

Reference: patent publication US7074774B2, “Use of N-acetyl-D-glucosamine in the manufacture of pharmaceutical useful for treating cardio-cerebrovascular anoxemia” (Third Military Medical University Chinese People's …, priority 2001, dated 2006)
